Measurements as given in US20200123620A1, “MiRNA-574-5p AS A BIOMARKER FOR STRATIFICATION OF PROSTAGLANDIN E-DEPENDENT TUMORS” (priority 2017, published 2020).

Assays:
Assay type in all cases: cell-based, human
mPGES-1 = mPGES-1 expression in transfected A549 cells (qRT-PCR, Western blot); conditions: IL-1β 24 h, then 24 h stimulus-free medium
Experimental: (§1) CUGBP1 and GW182 were transiently depleted using siRNA oligonucleotides. 24 h prior to transfection, A549 cells were seeded at a density of 5×10^5 cells/well in a 6-well plate. 20 pmol/μl siRNA oligonucleotides were transfected using Lipofectamine 2000N (Invitrogen, Karlsruhe, GER) according to manufacturer's instructions. For GW182 knockdown, MISSION® siRNA SAS1_Hs01_00244664 (Sigma-Aldrich, Darmstadt. GER) were used, respectively. For CUGBP1 knockdown a previously published siRNA (5′-GCUGUUUAUUGGUAUGAUU-3′; SEQ ID NO:5) was used for our experiments. As control, a siRNA with an unspecific sequence was used (5′-UCUCUCACAACGGGCAUUU-3′; SEQ ID NO: 6). Cells were harvested 24 h and 48 h after transfection. The efficiency of CUGBP1 and GW182 knockdown was determined by qRT-PCR, Western blot and immunofluorescence staining.
24 h prior to transfection, A549 cells were seeded at a density of 5×10^5 per well in a 6-well plate. 20 pmol/μl miRIDIAN miR-574-5p mimics (HM10794, Sigma-Aldrich, Darmstadt, GER) or negative control (HMC0002, Sigma-Aldrich, Darmstadt, GER) were transfected using Lipofectamine 2000® according to the manufacturer's instructions. In the same way, the A549 cells were transfected with 40 pmol/μl miR-574-5p-LNA™ inhibitor (4101451-001) or negative control (199006-001, Exiqon, Kopenhagen, DEN) for the knockdown of miR-574-5p. The transfection efficiency was determined by qRT-PCR.
(§2) 1 μg of DNase-treated RNA was used for reverse transcription using High-Capacity RNA-to-cDNA Kit (Applied Biosystems, ThermoFisher Scientific, Waltham, USA) according to manufacturer's instructions. […] 1 μl cDNA (1:2 diluted) was used per reaction. β-Actin was used as endogenous control to normalize variations in cDNA quantities in different samples.
(§3) To obtain a whole cell lysate, A549 cells were lysed in T-PER™ tissue protein extraction reagent (Life Technologies, ThermoFisher Scientific, Waltham, USA) for 30 min at 4° C. […] The protein content was determined by Bradford assay (BioRad Laboratories, Hercules, USA). […]

A549 cells = experiment: MTT cell proliferation assay; conditions: data not shown
Experimental: For the detection of viable cells, an MTT (3-(4,5-dimethylthiazol-2-yl)-2,5-diphenyltetrazolium bromide) tetrazolium (Carl Roth, Karlsruhe, GER) reduction assay was performed. 24 h prior transfection, A549 cells were seeded at a density of 1×10^4 cells per well in 96-well plates. For the MTT reduction assay, 20 μl of 5 mg/ml MTT (in PBS) was added to the cells in culture and so incubated for 4 h. The medium was removed and 100 μl DMSO (Carl Roth, Karlsruhe, GER) was added. The quantity of formazan was measured by recording changes in the absorbance at 570 nm using a plate reading spectrophotometer. As a reference the wavelength of […] was used to correct for nonspecific background.

COX-2 = COX-2 expression in transfected A549 cells (qRT-PCR, Western blot); conditions: mRNA and protein
Experimental: as §1, with “Cells were harvested 24 h and 48 h after transfection.” left out
as §2, §3

## 5′-GCUGUUUAUUGGUAUGAUU-3′ (listed as RNA, chemistry not given here) [ΔCUGBP1]
mPGES-1; Western blot
  mPGES-1 protein expression: strongly upregulated
mPGES-1; qRT-PCR
  mPGES-1 3′UTR isoform expression: further increases
  mPGES-1 mRNA expression: significantly upregulates
A549 cells
  IL1β-induced cell proliferation of A549 cells: enhanced
COX-2
  COX-2 level: uninfluenced
